Test results taken from publication PMC6425950 (Bioorganic & medicinal chemistry, 2019).

Tested on: HCV genotype 1b RNA replication in Huh-7 cells (subgenomic HCV replicon)
Assay: HCV subgenomic replicon assay, inhibition of HCV RNA replication
Type: cell-based, Hepatitis C virus
Conditions: HCV genotype 1b replicon, Huh-7 cells

Q: With `Nc1nc2c(ncn2[C@@H]2O[C@H](CO)[C@@H](O)[C@@]2(F)Cl)c(=O)[nH]1` [Compound 48, 2-Amino-9-((2R,3R,4R,5R)-3-chloro-3-fluoro-4-hydroxy-5-(hydroxymethyl)tetrahydrofuran-2-yl)-1,9-dihydro-6H-purin-6-one] as the compound, how does the “anti-HCV activity: none at concentration up to” value (“anti-HCV activity: none” for short) read?
A: > 10 µM

Q: Which “anti-HCV activity: none” value does the source give for `Nc1nc2c(ncn2[C@@H]2O[C@H](CO)[C@@H](O)[C@@]2(F)Br)c(=O)[nH]1` [Compound 49, 2-amino-9-((2R,3R,4R,5R)-3-bromo-3-fluoro-4-hydroxy-5-(hydroxymethyl)tetrahydrofuran-2-yl)-1,9-dihydro-6H-purin-6-one] here?
A: > 10 µM

Q: With `CC(C)OC(=O)[C@H](C)NP(=O)(OC[C@H]1O[C@@H](n2cnc3c(=O)[nH]c(N)nc32)[C@](F)(Cl)[C@@H]1O)Oc1ccccc1` (stereo partly drawn) [Compound 50, Isopropyl ((((2R,3R,4R,5R)-5-(2-amino-6-oxo-1,6-dihydro-9H-purin-9-yl)-4-chloro-4-fluoro-3-hydroxytetrahydrofuran-2-yl)methoxy)(phenoxy)phosphoryl)-L-alaninate] as the compound, how does the “anti-HCV activity: none” value read?
A: > 10 µM

Q: `CC(C)OC(=O)[C@H](C)N[P@](=O)(OC[C@H]1O[C@@H](n2cnc3c(=O)[nH]c(N)nc32)[C@](F)(Br)[C@@H]1O)Oc1ccccc1` [Compound 51, Isopropyl ((((2R,3R,4R,5R)-5-(2-amino-6-oxo-1,6-dihydro-9H-purin-9-yl)-4-bromo-4-fluoro-3-hydroxytetrahydrofuran-2-yl)methoxy)(phenoxy)phosphoryl)-L-alaninate] was tested. Which “anti-HCV activity: none” value did it give?
A: > 10 µM

Same assay, conditions: HCV replicon; statement in conclusion

Q: With `CC(C)OC(=O)[C@H](C)NP(=O)(OC[C@H]1O[C@@H](n2ccc(=O)[nH]c2=O)[C@](F)(Cl)[C@@H]1O)Oc1ccccc1` (stereo partly drawn) [Compound 19, Isopropyl ((((2R,3R,4R,5R)-4-chloro-5-(2,4-dioxo-3,4-dihydropyrimidin-1(2H)-yl)-4-fluoro-3-hydroxytetrahydrofuran-2-yl)methoxy)(phenoxy)phosphoryl)-L-alaninate] as the compound, how does the “anti-HCV activity (in words)” value read?
A: low to sub-micromolar range

Q: Which “anti-HCV activity (in words)” value does the source give for `CC(C)OC(=O)[C@H](C)NP(=O)(OC[C@H]1O[C@@H](n2ccc(=O)[nH]c2=O)[C@](F)(Br)[C@@H]1O)Oc1ccccc1` (stereo partly drawn) [Compound 20, Isopropyl ((((2R,3R,4R,5R)-4-bromo-5-(2,4-dioxo-3,4-dihydropyrimidin-1(2H)-yl)-4-fluoro-3-hydroxytetrahydrofuran-2-yl)methoxy)(phenoxy)phosphoryl)-L-alaninate] here?
A: low to sub-micromolar range

Q: For `Nc1ccn([C@@H]2O[C@H](CO)[C@@H](O)[C@@]2(F)Br)c(=O)n1` [Compound 27, 4-Amino-1-((2R,3R,4R, 5R)-3-bromo-3-fluoro-4-hydroxy-5-(hydroxymethyl)tetrahydrofuran-2-yl)pyrimidin-2(lH)-one], which “anti-HCV activity (in words)” value is on record?
A: low to sub-micromolar range

Q: `CC(C)OC(=O)[C@H](C)NP(=O)(OC[C@H]1O[C@@H](n2ccc(N)nc2=O)[C@](F)(Br)[C@@H]1O)Oc1ccccc1` (stereo partly drawn) [Compound 32, Isopropyl ((((2R,3R,4R,5R)-5-(4-amino-2-oxopyrimidin-1(2H)-yl)-4-bromo-4-fluoro-3-hydroxytetrahydrofuran-2-yl)methoxy)(phenoxy)phosphoryl)-L-alaninate] was tested. Which “anti-HCV activity (in words)” value did it give?
A: low to sub-micromolar range

Q: With `CC(C)OC(=O)[C@H](C)NP(=O)(OC[C@H]1O[C@@H](n2ccc(N)nc2=O)[C@](F)(Cl)[C@@H]1O)Oc1ccccc1` (stereo partly drawn) [Compound 35, Isopropyl ((((2R,3R,4R,5R)-5-(4-amino-2-oxopyrimidin-1(2H)-yl)-4-chloro-4-fluoro-3-hydroxytetrahydrofuran-2-yl)methoxy) (phenoxy)phosphoryl)-L-alaninate] as the compound, how does the “anti-HCV activity (in words)” value read?
A: low to sub-micromolar range

Q: Which “anti-HCV activity (in words)” value does the source give for `CC(C)OC(=O)[C@H](C)NP(=O)(OC[C@H]1O[C@@H](n2cnc3c(N)ncnc32)[C@](F)(Cl)[C@@H]1O)Oc1ccccc1` (stereo partly drawn) [Compound 42, Isopropyl ((((2R,3R,4R,5R)-5-(6-amino-9H-purin-9-yl)-4-chloro-4-fluoro-3-hydroxytetrahydrofuran-2-yl)methoxy) (phenoxy)phosphoryl)-L-alaninate] here?
A: low to sub-micromolar range

Same assay, conditions: Hepatitis C virus, GETYPE1B, Huh-7, read-out: Anti-HCV activity EC90

Q: Which EC90 does the source give for `Nc1ccn([C@@H]2O[C@H](CO)[C@@H](O)[C@@]2(F)Cl)c(=O)n1` [Compound 26, 4-Amino-1-((2R,3R,4R,5R)-3-chloro-3-fluoro-4-hydroxy-5-(hydroxymethyl)tetrahydrofuran-2-yl)pyrimidin-2(1H)-one] here?
A: > 10 µM

Q: `Nc1ncnc2c1ncn2[C@@H]1O[C@H](CO)[C@@H](O)[C@@]1(F)Cl` [Compound 40, (2R, 3R, 4R, 5R)-5-(6-Amino-9H-purin-9-yl)-4-chloro-4-fluoro-2-(hydroxymethyl)tetrahydrofuran-3-ol] was tested. Which EC90 did it give?
A: > 10 µM

Q: `Nc1ncnc2c1ncn2[C@@H]1O[C@H](CO)[C@@H](O)[C@@]1(F)Br` [Compound 41, (2R, 3R, 4R, 5R)-5-(6-Amino-9H-purin-9-yl)-4-bromo-4-fluoro-2-(hydroxymethyl)tetrahydrofuran-3-ol] was tested. Which EC90 did it give?
A: > 10 µM

Q: `CC(C)OC(=O)[C@H](C)NP(=O)(OC[C@H]1O[C@@H](n2cnc3c(N)ncnc32)[C@](F)(Br)[C@@H]1O)Oc1ccccc1` (stereo partly drawn) [Compound 43, Isopropyl ((((2R,3R,4R,5R)-5-(6-amino-9H-purin-9-yl)-4-bromo-4-fluoro-3-hydroxytetrahydrofuran-2-yl)methoxy)(phenoxy)phosphoryl)-L-alaninate] was tested. Which EC90 did it give?
A: > 10 µM

Q: `Nc1nc2c(ncn2[C@@H]2O[C@H](CO)[C@@H](O)[C@@]2(F)Br)c(=O)[nH]1` [Compound 49, 2-amino-9-((2R,3R,4R,5R)-3-bromo-3-fluoro-4-hydroxy-5-(hydroxymethyl)tetrahydrofuran-2-yl)-1,9-dihydro-6H-purin-6-one] was tested. Which EC90 did it give?
A: > 10 µM

Q: `CC(C)OC(=O)[C@H](C)NP(=O)(OC[C@H]1O[C@@H](n2cnc3c(=O)[nH]c(N)nc32)[C@](F)(Cl)[C@@H]1O)Oc1ccccc1` (stereo partly drawn) [Compound 50, Isopropyl ((((2R,3R,4R,5R)-5-(2-amino-6-oxo-1,6-dihydro-9H-purin-9-yl)-4-chloro-4-fluoro-3-hydroxytetrahydrofuran-2-yl)methoxy)(phenoxy)phosphoryl)-L-alaninate] was tested. Which EC90 did it give?
A: > 10 µM
